Strand notation (5' to 3'): a small letter for the sugar, then the base; units joined by * are phosphorothioate-linked, units joined directly phosphodiester-linked; [ ] holds rarer units or linkages, { } end groups; capitals alone tell only the bases. e = 2'-O-(2-methoxyethyl) (MOE); k = constrained ethyl (cEt); [5mC] = 5-methylcytosine; d = 2'-deoxy (DNA)
Tested on: human PKK mRNA
Test: Antisense inhibition of human PKK mRNA in HepaRG cells, 1,000 nM, MOE/deoxy/cEt oligonucleotides (Example 3)
Type: cell-based
Summary of the method: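 HepaRG cells at 20,000 per well electroporated with 1,000 nM 16-mer MOE/cEt/deoxy gapmers (phosphorothioate, 5-methylcytosine). After about 24 h, PKK mRNA measured by qRT-PCR with primer probe set RTS3454, normalized to RIBOGREEN total RNA. Reported as percent inhibition versus untreated cells.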

[1] = Table 19, HepaRG cells, electroporation with 1,000 nM antisense oligonucleotide, approximately 24 hours, PKK mRNA by RT-PCR (RTS3454), relative to untreated control cells
[2] = HepaRG cells, 1,000 nM antisense oligonucleotide, Table 29
[3] = HepaRG cells, electroporation with 1,000 nM antisense oligonucleotide, approx. 24 hours, PKK mRNA by RT-PCR (RTS3454), relative to untreated control cells, Table 25 experiment
[4] = Table 30, human PKK mRNA, HepaRG cells, 1,000 nM antisense oligonucleotide
[5] = HepaRG cells, electroporation with 1,000 nM antisense oligonucleotide, approximately 24 hours, primer probe set RTS3454, relative to untreated control cells, experiment of Table 24
[6] = HepaRG cells, electroporation with 1,000 nM antisense oligonucleotide, approximately 24 hours, primer probe set RTS3454, relative to untreated control cells, experiment of Table 23
[7] = Table 28, HepaRG cells, 1,000 nM antisense oligonucleotide, human PKK mRNA
[8] = Table 21 experiment, HepaRG cells, electroporation with 1,000 nM antisense oligonucleotide, approx. 24 hours, PKK mRNA by RT-PCR (RTS3454), relative to untreated control cells
[9] = Table 27, HepaRG cells, 1,000 nM antisense oligonucleotide, human PKK mRNA
[10] = PKK mRNA, HepaRG cells, 1,000 nM antisense oligonucleotide, Table 31
[11] = HepaRG cells, electroporation with 1,000 nM antisense oligonucleotide, approx. 24 hours, PKK mRNA by RT-PCR (RTS3454), relative to untreated control cells, Table 26 experiment

## 548094 (antisense eG*eT*kT*dT*dG*d[5mC]*dA*dA*dA*d[5mC]*dT*dA*dA*kG*kG*eG) [compound 548094]
[1]
  % inhibition: 74%

## 548555 (antisense eA*e[5mC]*kA*d[5mC]*dG*d[5mC]*d[5mC]*dA*dG*dG*dT*dG*dA*kA*kA*eA) [compound 548555]
[2]
  % inhibition: 2%

## 548601 (eT*eT*kG*dG*dT*dG*dG*dT*dG*dG*dG*dA*dT*kT*kG*eG; antisense) [compound 548601]
[2]
  % inhibition: 18%

## 548541 (antisense eG*eG*k[5mC]*dA*d[5mC]*dT*dG*dG*dT*d[5mC]*dA*dT*dG*kG*kA*e[5mC]) [compound 548541]
[2]
  % inhibition: 39%

## 548194 (eG*e[5mC]*k[5mC]*dA*dA*d[5mC]*dA*dG*dT*dT*dT*d[5mC]*dA*kA*k[5mC]*eT; antisense) [compound 548194]
[3]
  % inhibition: 61%

## 548452 (eT*eA*kT*dA*dT*d[5mC]*dA*d[5mC]*dT*dG*dT*dA*d[5mC]*k[5mC]*kT*eA; antisense) [compound 548452]
[4]
  % inhibition: 65%

## 548132 (eG*eA*kA*dT*dT*dT*dG*dA*d[5mC]*dT*dT*dG*dA*kA*k[5mC]*eT; antisense) [compound 548132]
[1]
  % inhibition: 0%

## 548039 (eG*eA*kA*dA*dG*dG*dT*dG*dT*dA*dT*d[5mC]*dT*kT*kT*eT; antisense) [compound 548039]
[5]
  % inhibition: 29%

## 547929 (eA*eG*kA*dT*dG*dG*dT*d[5mC]*d[5mC]*dG*dA*d[5mC]*dA*k[5mC]*kA*e[5mC]; antisense) [compound 547929]
[6]
  % inhibition: 65%

## 548474 (eG*eA*kA*dG*dG*dT*dG*dT*dG*d[5mC]*dT*dG*dT*k[5mC]*kG*e[5mC]; antisense) [compound 548474]
[7]
  % inhibition: 33%

## 547817 (eT*eG*kA*dA*d[5mC]*dT*dT*dG*d[5mC]*dT*dG*dG*dA*kA*kG*eA; antisense) [compound 547817]
[8]
  % inhibition: 18%

## 548001 (antisense eA*e[5mC]*k[5mC]*dA*dG*dA*dG*d[5mC]*dT*d[5mC]*d[5mC]*d[5mC]*dT*kT*kG*eT) [compound 548001]
[5]
  % inhibition: 64%

## 548015 (eT*eT*kG*dT*d[5mC]*d[5mC]*d[5mC]*d[5mC]*dA*dG*dT*dG*dT*kT*kA*e[5mC]; antisense) [compound 548015]
[5]
  % inhibition: 50%

## 548364 (antisense eT*eG*kG*d[5mC]*dT*dA*dA*dG*dT*d[5mC]*dA*dG*dG*k[5mC]*k[5mC]*e[5mC]) [compound 548364]
[9]
  % inhibition: 30%

## 548053 (eA*eT*kT*d[5mC]*dA*dA*dA*dG*dG*dA*dG*d[5mC]*d[5mC]*kT*kG*eG; antisense) [compound 548053]
[5]
  % inhibition: 36%

## 547974 (antisense eA*eA*kA*dG*dT*d[5mC]*dA*dA*d[5mC]*dT*d[5mC]*d[5mC]*d[5mC]*kG*kG*eG) [compound 547974]
[6]
  % inhibition: 52%

## 548354 (antisense eA*eT*kG*dT*d[5mC]*d[5mC]*d[5mC]*d[5mC]*dA*dG*dT*dG*dG*kA*kA*eG) [compound 548354]
[9]
  % inhibition: 41%

## 548419 (antisense e[5mC]*e[5mC]*kT*dA*dT*dA*dT*d[5mC]*dA*d[5mC]*dT*dG*dT*k[5mC]*k[5mC]*eT) [compound 548419]
[4]
  % inhibition: 52%

## 548149 (eG*eA*k[5mC]*dA*dT*dT*dG*dT*d[5mC]*d[5mC]*dT*d[5mC]*dA*kG*k[5mC]*eA; antisense) [compound 548149]
[1]
  % inhibition: 39%

## 547820 (eT*e[5mC]*kA*dT*dT*dG*dA*dT*dT*dG*dA*dA*d[5mC]*kT*kT*eG; antisense) [compound 547820]
[8]
  % inhibition: 0%

## 547965 (antisense eG*eG*kG*dT*dT*d[5mC]*dA*dG*dG*dT*dA*dA*dA*kG*kT*eT) [compound 547965]
[6]
  % inhibition: 29%

## 548604 (eG*eT*kG*dG*dT*dG*dG*dG*dA*dT*dT*dG*dG*kT*kG*e[5mC]; antisense) [compound 548604]
[2]
  % inhibition: 22%

## 548687 (antisense eG*eA*kA*dT*d[5mC]*dT*d[5mC]*d[5mC]*d[5mC]*dT*dG*dA*dG*kT*k[5mC]*eA) [compound 548687]
[10]
  % inhibition: 20%

## 547753 (eA*eT*kG*dA*dA*d[5mC]*dG*dG*dT*d[5mC]*dT*dT*d[5mC]*kA*kA*eG; antisense) [compound 547753]
[8]
  % inhibition: 3%

## 548089 (antisense eA*eA*kA*d[5mC]*dT*dA*dA*dG*dG*dG*dA*d[5mC]*d[5mC]*kA*k[5mC]*e[5mC]) [compound 548089]
[1]
  % inhibition: 34%

## 548151 (eG*eG*kG*d[5mC]*dT*dT*d[5mC]*dA*dG*d[5mC]*d[5mC]*dA*dG*kA*k[5mC]*eA; antisense) [compound 548151]
[3]
  % inhibition: 35%

## 548390 (eG*e[5mC]*kT*dG*dA*dG*dT*dG*dT*dG*dA*d[5mC]*dT*kT*kA*eA; antisense) [compound 548390]
[4]
  % inhibition: 43%

## 548629 (antisense e[5mC]*e[5mC]*k[5mC]*dA*dT*d[5mC]*dT*dT*dG*dG*dG*dA*d[5mC]*kT*kT*eT) [compound 548629]
[10]
  % inhibition: 44%

## 548572 (eG*e[5mC]*kA*dT*dT*dA*d[5mC]*dT*d[5mC]*dA*dG*d[5mC]*dA*kT*kG*eT; antisense) [compound 548572]
[2]
  % inhibition: 63%

## 548290 (eG*eA*kG*d[5mC]*dA*d[5mC]*dT*d[5mC]*dT*dT*dA*dT*dT*kA*kG*e[5mC]; antisense) [compound 548290]
[11]
  % inhibition: 31%

## 548067 (e[5mC]*eA*kG*dT*dT*dG*dG*dT*dA*dT*dA*dA*dA*kT*kT*eG; antisense) [compound 548067]
[5]
  % inhibition: 18%

## 548196 (e[5mC]*eA*kA*dT*dA*dT*dT*dG*dA*d[5mC]*dT*dT*dT*kG*kG*eG; antisense) [compound 548196]
[3]
  % inhibition: 6%

## 547889 (eT*eT*k[5mC]*d[5mC]*dG*dG*dT*dA*d[5mC]*dT*d[5mC]*dT*dG*k[5mC]*k[5mC]*eT; antisense) [compound 547889]
Table 20, HepaRG cells, electroporation with 1,000 nM antisense oligonucleotide, approximately 24 hours, PKK mRNA by RT-PCR (RTS3454), relative to untreated control cells
  % inhibition: 91%
Table 22 experiment, HepaRG cells, electroporation with 1,000 nM antisense oligonucleotide, approx. 24 hours, PKK mRNA by RT-PCR (RTS3454), relative to untreated control cells
  % inhibition: 97%

## 547985 (antisense eG*e[5mC]*kG*dA*dA*dT*d[5mC]*dA*dT*d[5mC]*dT*dT*dT*kG*kT*eG) [compound 547985]
[6]
  % inhibition: 63%

## 548202 (eG*e[5mC]*kT*dG*dT*dT*d[5mC]*dT*dA*dA*dT*dG*dT*kG*kG*e[5mC]; antisense) [compound 548202]
[3]
  % inhibition: 9%

## 548673 (antisense eG*eA*k[5mC]*d[5mC]*dT*dT*dG*d[5mC]*dT*dT*d[5mC]*d[5mC]*dA*kT*kG*eT) [compound 548673]
[10]
  % inhibition: 40%

## 548006 (e[5mC]*eA*kA*dA*dG*dA*dG*dT*dA*dA*d[5mC]*d[5mC]*dA*kG*kA*eG; antisense) [compound 548006]
[5]
  % inhibition: 54%

## 548267 (antisense eG*eA*k[5mC]*d[5mC]*dT*d[5mC]*d[5mC]*dA*dG*dA*d[5mC]*dT*dA*k[5mC]*kT*eG) [compound 548267]
[11]
  % inhibition: 34%

## 548669 (antisense eA*eA*kT*dG*d[5mC]*dA*dG*dG*d[5mC]*d[5mC]*dA*dG*d[5mC]*kA*kT*e[5mC]) [compound 548669]
[10]
  % inhibition: 42%

## 548580 (e[5mC]*e[5mC]*kA*dG*dA*dG*d[5mC]*d[5mC]*dT*dT*dG*dA*dT*k[5mC]*kA*eG; antisense) [compound 548580]
[2]
  % inhibition: 36%

## 548434 (antisense eA*e[5mC]*kA*dA*dT*dA*dT*d[5mC]*dA*d[5mC]*dT*dG*dT*kA*k[5mC]*e[5mC]) [compound 548434]
[4]
  % inhibition: 63%

## 548488 (antisense e[5mC]*e[5mC]*kT*d[5mC]*d[5mC]*dT*dT*dT*dT*dG*dG*d[5mC]*dT*kT*kG*eA) [compound 548488]
[7]
  % inhibition: 63%

## 548636 (antisense e[5mC]*eT*k[5mC]*dT*dA*dT*dA*d[5mC]*dA*dG*d[5mC]*dT*dG*kG*kG*e[5mC]) [compound 548636]
[10]
  % inhibition: 5%

## 548651 (antisense eA*eG*kT*d[5mC]*dT*d[5mC]*dT*dT*dT*d[5mC]*d[5mC]*dT*dA*k[5mC]*k[5mC]*e[5mC]) [compound 548651]
[10]
  % inhibition: 61%

## 548207 (e[5mC]*eT*kG*dG*dT*d[5mC]*dA*dA*dT*d[5mC]*dT*dG*dA*k[5mC]*kT*eA; antisense) [compound 548207]
[3]
  % inhibition: 60%

## 548321 (e[5mC]*eT*kG*d[5mC]*dA*dT*d[5mC]*dT*dG*dG*dA*d[5mC]*dT*kA*kT*eG; antisense) [compound 548321]
[9]
  % inhibition: 38%

## 547816 (eG*eA*kA*d[5mC]*dT*dT*dG*d[5mC]*dT*dG*dG*dA*dA*kG*kA*eA; antisense) [compound 547816]
[8]
  % inhibition: 45%

## 548373 (eT*e[5mC]*k[5mC]*d[5mC]*d[5mC]*dA*dA*dG*dA*dT*dT*dA*dT*kG*kT*eG; antisense) [compound 548373]
[9]
  % inhibition: 16%
